Target: T1, Indoleamine 2,3-dioxygenase (Homo sapiens, UniProt P14902)
T1 construct: endogenous in cells; host or cells: SKOV-3 (ATCC HTB-77), stimulated with interferon gamma
Experiment: SKOV-3 cellular Indoleamine 2,3-dioxygenase assay
Settings: SKOV-3 cells, 50 ng/ml Interferon gamma, 100 μM L-Tryptophan, 24 hours, N-Formylkynurenin fluorescence detection; read-out: cell based activity
Procedure, shortened: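 SKOV-3 cells stimulated with 50 ng/ml interferon gamma, exposed to compound dilutions with L-tryptophan at 100 µM final for 24 h at 37 °C. N-formylkynurenine detected by 200 mM 3-methylpiperidine, 65 °C for 20 min, fluorescence ex 405/em 535 nm.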

T1 sequence (P14902 whole entry): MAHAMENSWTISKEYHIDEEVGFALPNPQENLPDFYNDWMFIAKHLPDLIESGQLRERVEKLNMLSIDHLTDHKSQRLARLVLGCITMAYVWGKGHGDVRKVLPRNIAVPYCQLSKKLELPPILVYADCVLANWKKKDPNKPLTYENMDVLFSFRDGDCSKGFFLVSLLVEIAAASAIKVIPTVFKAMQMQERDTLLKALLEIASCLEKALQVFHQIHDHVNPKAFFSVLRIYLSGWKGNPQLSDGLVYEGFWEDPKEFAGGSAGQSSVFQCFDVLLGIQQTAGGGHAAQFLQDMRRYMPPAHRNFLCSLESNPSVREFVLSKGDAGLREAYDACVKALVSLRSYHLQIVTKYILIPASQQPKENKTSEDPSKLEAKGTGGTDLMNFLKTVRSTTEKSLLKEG

Row | SMILES | IC50 [nM]
1 | CN(CCOc1nonc1C(=NO)Nc1ccc(F)c(Cl)c1)S(N)(=O)=O [6/4] | 100 to 1000
2 | Cc1nnc(NCCOc2nonc2C(=NO)Nc2ccc(F)c(Cl)c2)o1 [Example 14, N-(3-Chloro-4-fluorophenyl)-N′-hydroxy-4-(2-((5-methyl-1,3,4-oxadiazol-2-yl)amino)ethoxy)-1,2,5-oxadiazole-3-carboximidamide] | 100 to 1000
3 | NC(=O)CCCOc1nonc1C(=NO)Nc1ccc(F)c(Cl)c1 [Example 11, 4-((4-(N-(3-Chloro-4-fluorophenyl)-N′-hydroxycarbamimidoyl)-1,2,5-oxadiazol-3-yl)oxy)butanamide] | 100 to 1000
4 | CNS(=O)(=O)N(C)CCOc1nonc1C(=NO)Nc1ccc(F)c(Cl)c1 [6/5] | 100 to 1000
5 | O=S(=O)(NCCOc1nonc1C(=NO)Nc1ccc(F)c(Cl)c1)C(F)(F)F [1/2] | > 1000
6 | NC(=O)C1(C(=O)NCCSc2nonc2C(=NO)Nc2ccc(F)c(C(F)F)c2)CNC1 [Example 126] | 100 to 1000
7 | Nc1c(NCCOc2nonc2C(=NO)Nc2ccc(F)c(C(F)F)c2)c(=O)c1=O [2/3] | < 100
8 | CNC(=O)C(=O)NCCOc1nonc1C(=NO)Nc1ccc(F)c(Cl)c1 [9/17] | 100 to 1000

Results, then the compound that gave them:

Row | IC50 [nM] | SMILES
9 | < 100 | CS(=N)(=O)CC(=O)NCCSc1nonc1/C(=N/O)Nc1ccc(F)c(Br)c1 (stereo not shown) [Example 127, N-(2-((4-(N-(3-Bromo-4-fluorophenyl)-N′-hydroxycarbamimidoyl)-1,2,5-oxadiazol-3-yl)thio)ethyl)-2-(S-methylsulfonimidoyl)acetamide]
10 | < 100 | C[C@@H](CSc1nonc1/C(=N/O)Nc1ccc(F)c(Br)c1)NC(=O)CS(N)(=O)=O (single isomer, unassigned) [114/5]
11 | < 100 | NC(=O)CC(=O)NCCSc1nonc1C(=NO)Nc1ccc(F)c(C(F)F)c1 [Example 119]
12 | < 100 | CC(C)(O)C(=O)NCCSc1nonc1C(=NO)Nc1ccc(F)c(C(F)F)c1 [107/6]
13 | < 100 | NS(=O)(=O)CCC(=O)NCCSc1nonc1C(=NO)Nc1ccc(F)c(C(F)(F)F)c1 [107/35]

— US11078168B2, “Substituted N-hydroxyamidinoheterocycles as modulators of indoleamine 2,3-dioxygenase” (PHENEX DISCOVERY VERWALTUNGS-GMBH, priority 2016, dated 2021)
